≈ marks a conversion by molar mass, not a printed value. One block for each molecule: values may come before it.
Key:
[1] = cited from earlier work
[2] = Experimental saturated solubility of ENO in excipients; format: physicochemical; details: thermodynamic from solid
[3] = Hansen solubility parameters estimated with HSPiP program; details: HSP parameters of ENE5 based on composition
[4] = cited from earlier work; remark: listed apart in the source

- solubility at 72 h ([2]; C90, 40 °C): 2.8 mg/mL (≈ 8.74 mM)
- solubility at 72 h ([2]; Miglyol 812N, 40 °C, oil or lipid): 5.4 mg/mL (≈ 16.9 mM)
- solubility at 72 h ([2]; NMP (N-methyl-2-pyrrolidone), 40 °C): 6.7 mg/mL (≈ 20.9 mM)
- solubility at 72 h ([2]; Tween 80, 40 °C): 1.5 mg/mL (≈ 4.68 mM)
SMILES: CCn1cc(C(=O)O)c(=O)c2cc(F)c(N3CCNCC3)nc21 [ENO, Enoxacin]
- aqueous solubility ([1]; an experimental value): 0.29 mg/mL (≈ 0.905 mM)
- pKa [1]: 5.5

- δd, share of the component in ENE5 based on composition [3]: 8.1
- δh, share of the component in ENE5 based on composition [3]: 3.33
- δp, share of the component in ENE5 based on composition [3]: 4.46
SMILES: CN1CCCC1=O [NMP, N-methyl-2-pyrrolidone]

SMILES: CCOCCOCCO [Transcutol-HP]
- HLB [4]: 14.5

- δd, share of the component in ENE5 based on composition [3]: 2.52
- δh, share of the component in ENE5 based on composition [3]: 1.425
- δp, share of the component in ENE5 based on composition [3]: 0.975
SMILES: CCCCCCCC/C=C\CCCCCCCC(=O)OCCOCC(OCCO)C1OCC(OCCO)C1OCCO (stereo not shown) [Tween 80]
